# Data reported in patent publication US20080039422A1, “Vitamin B12-Containing Compositions and Methods of Use” (Transition Therapeutics Inc., priority 2004, published 2008).
# Experiment: Hydroxocobalamin-containing solutions
# Format: physicochemical
# Procedure: A variety of solutions containing hydroxocobalamin (HO-Cbl) were tested. The excipients tested in these studies were the same as those used above: (a) 15% ethanol; (b) 20% ethanol; (c) 20% propylene glycol; (d) 40% propylene glycol; (e) 15% ethanol and 20% propylene glycol; and (f) 20% ethanol and 40% propylene glycol. Here, however, three challenge amounts were tested (˜16, 40, and 81 mg/ml HO-Cbl) and the time course was slightly longer, with measurements being made on Day 3 and Day 5. The OH-Cbl was solubilized at room temperature, as it dissolved readily in the excipients tested. If necessary or desired, the solutions can be mixed by shaking briefly (using, for example, a vortex or other agitation for a few seconds (e.g., 5-20 seconds) to a minute or so (e.g., 1-3 minutes). Following suitable dilution, the absorbance at […] was measured.
compound,measurement,setting,value
"C/C1=C2/[N-][C@H]([C@H](CC(N)=O)[C@@]2(C)CCC(=O)NC[C@@H](C)OP(=O)([O-])O[C@H]2[C@@H](O)[C@@H](n3cnc4cc(C)c(C)cc43)O[C@@H]2CO)[C@]2(C)N=C(/C(C)=C3N=C(/C=C4N=C1[C@@H](CCC(N)=O)C\4(C)C)[C@@H](CCC(N)=O)[C@]\3(C)CC(N)=O)[C@@H](CCC(N)=O)[C@]2(C)CC(N)=O.[Co+3].[OH-] [OH-Cbl, hydroxocobalamin]",concentrations of HO-Cbl versus control (water) values,"any of the solutions tested, any of the three challenge amounts",did not substantially exceed control values
same,Conc of OH-Cbl,"challenge 16.18 mg/mL, ethanol 0%, PG 0%, Day 0",0 µg/mL
same,Conc of OH-Cbl,"challenge 16.18 mg/mL, ethanol 0%, PG 0%, Day 3",16830 µg/mL
same,Conc of OH-Cbl,"challenge 16.18 mg/mL, ethanol 0%, PG 0%, Day 5",16930 µg/mL
same,Conc of OH-Cbl,"challenge 16.18 mg/mL, ethanol 0%, PG 20%, Day 0",0 µg/mL
same,Conc of OH-Cbl,"challenge 16.18 mg/mL, ethanol 0%, PG 20%, Day 3",17100 µg/mL
same,Conc of OH-Cbl,"challenge 16.18 mg/mL, ethanol 0%, PG 20%, Day 5",17310 µg/mL
same,Conc of OH-Cbl,"challenge 16.18 mg/mL, ethanol 0%, PG 40%, Day 0",0 µg/mL
same,Conc of OH-Cbl,"challenge 16.18 mg/mL, ethanol 0%, PG 40%, Day 3",16780 µg/mL
same,Conc of OH-Cbl,"challenge 16.18 mg/mL, ethanol 0%, PG 40%, Day 5",17100 µg/mL
same,Conc of OH-Cbl,"challenge 16.18 mg/mL, ethanol 15%, PG 0%, Day 0",0 µg/mL
same,Conc of OH-Cbl,"challenge 16.18 mg/mL, ethanol 15%, PG 0%, Day 3",16670 µg/mL
same,Conc of OH-Cbl,"challenge 16.18 mg/mL, ethanol 15%, PG 0%, Day 5",17060 µg/mL
same,Conc of OH-Cbl,"challenge 16.18 mg/mL, ethanol 15%, PG 20%, Day 0",0 µg/mL
same,Conc of OH-Cbl,"challenge 16.18 mg/mL, ethanol 15%, PG 20%, Day 3",16940 µg/mL
same,Conc of OH-Cbl,"challenge 16.18 mg/mL, ethanol 15%, PG 20%, Day 5",17440 µg/mL
same,Conc of OH-Cbl,"challenge 16.18 mg/mL, ethanol 20%, PG 0%, Day 0",0 µg/mL
same,Conc of OH-Cbl,"challenge 16.18 mg/mL, ethanol 20%, PG 0%, Day 3",17050 µg/mL
same,Conc of OH-Cbl,"challenge 16.18 mg/mL, ethanol 20%, PG 0%, Day 5",17140 µg/mL
same,Conc of OH-Cbl,"challenge 16.18 mg/mL, ethanol 20%, PG 40%, Day 0",0 µg/mL
same,Conc of OH-Cbl,"challenge 16.18 mg/mL, ethanol 20%, PG 40%, Day 3",16250 µg/mL
same,Conc of OH-Cbl,"challenge 16.18 mg/mL, ethanol 20%, PG 40%, Day 5",16590 µg/mL
same,Conc of OH-Cbl,"challenge 40.45 mg/mL, ethanol 0%, PG 0%, Day 0",0 µg/mL
same,Conc of OH-Cbl,"challenge 40.45 mg/mL, ethanol 0%, PG 0%, Day 3",41900 µg/mL
same,Conc of OH-Cbl,"challenge 40.45 mg/mL, ethanol 0%, PG 0%, Day 5",41680 µg/mL
same,Conc of OH-Cbl,"challenge 40.45 mg/mL, ethanol 0%, PG 20%, Day 0",0 µg/mL
same,Conc of OH-Cbl,"challenge 40.45 mg/mL, ethanol 0%, PG 20%, Day 3",41680 µg/mL
same,Conc of OH-Cbl,"challenge 40.45 mg/mL, ethanol 0%, PG 20%, Day 5",41470 µg/mL
same,Conc of OH-Cbl,"challenge 40.45 mg/mL, ethanol 0%, PG 40%, Day 0",0 µg/mL
same,Conc of OH-Cbl,"challenge 40.45 mg/mL, ethanol 0%, PG 40%, Day 3",41790 µg/mL
same,Conc of OH-Cbl,"challenge 40.45 mg/mL, ethanol 0%, PG 40%, Day 5",41790 µg/mL
same,Conc of OH-Cbl,"challenge 40.45 mg/mL, ethanol 15%, PG 0%, Day 0",0 µg/mL
same,Conc of OH-Cbl,"challenge 40.45 mg/mL, ethanol 15%, PG 0%, Day 3",41150 µg/mL
same,Conc of OH-Cbl,"challenge 40.45 mg/mL, ethanol 15%, PG 0%, Day 5",41470 µg/mL
same,Conc of OH-Cbl,"challenge 40.45 mg/mL, ethanol 15%, PG 20%, Day 0",0 µg/mL
same,Conc of OH-Cbl,"challenge 40.45 mg/mL, ethanol 15%, PG 20%, Day 3",41040 µg/mL
same,Conc of OH-Cbl,"challenge 40.45 mg/mL, ethanol 15%, PG 20%, Day 5",42220 µg/mL
same,Conc of OH-Cbl,"challenge 40.45 mg/mL, ethanol 20%, PG 0%, Day 0",0 µg/mL
same,Conc of OH-Cbl,"challenge 40.45 mg/mL, ethanol 20%, PG 0%, Day 3",41580 µg/mL
same,Conc of OH-Cbl,"challenge 40.45 mg/mL, ethanol 20%, PG 0%, Day 5",41040 µg/mL
same,Conc of OH-Cbl,"challenge 40.45 mg/mL, ethanol 20%, PG 40%, Day 0",0 µg/mL
same,Conc of OH-Cbl,"challenge 40.45 mg/mL, ethanol 20%, PG 40%, Day 3",41360 µg/mL
same,Conc of OH-Cbl,"challenge 40.45 mg/mL, ethanol 20%, PG 40%, Day 5",41580 µg/mL
same,Conc of OH-Cbl,"challenge 80.90 mg/mL, ethanol 0%, PG 0%, Day 0",0 µg/mL
same,Conc of OH-Cbl,"challenge 80.90 mg/mL, ethanol 0%, PG 0%, Day 3",81020 µg/mL
same,Conc of OH-Cbl,"challenge 80.90 mg/mL, ethanol 0%, PG 0%, Day 5",80800 µg/mL
same,Conc of OH-Cbl,"challenge 80.90 mg/mL, ethanol 0%, PG 20%, Day 0",0 µg/mL
same,Conc of OH-Cbl,"challenge 80.90 mg/mL, ethanol 0%, PG 20%, Day 3",83800 µg/mL
same,Conc of OH-Cbl,"challenge 80.90 mg/mL, ethanol 0%, PG 20%, Day 5",82090 µg/mL
same,Conc of OH-Cbl,"challenge 80.90 mg/mL, ethanol 0%, PG 40%, Day 0",0 µg/mL
same,Conc of OH-Cbl,"challenge 80.90 mg/mL, ethanol 0%, PG 40%, Day 3",81870 µg/mL
same,Conc of OH-Cbl,"challenge 80.90 mg/mL, ethanol 0%, PG 40%, Day 5",82730 µg/mL
same,Conc of OH-Cbl,"challenge 80.90 mg/mL, ethanol 15%, PG 0%, Day 0",0 µg/mL
same,Conc of OH-Cbl,"challenge 80.90 mg/mL, ethanol 15%, PG 0%, Day 3",82730 µg/mL
same,Conc of OH-Cbl,"challenge 80.90 mg/mL, ethanol 15%, PG 0%, Day 5",82940 µg/mL
same,Conc of OH-Cbl,"challenge 80.90 mg/mL, ethanol 15%, PG 20%, Day 0",0 µg/mL
same,Conc of OH-Cbl,"challenge 80.90 mg/mL, ethanol 15%, PG 20%, Day 3",81230 µg/mL
same,Conc of OH-Cbl,"challenge 80.90 mg/mL, ethanol 15%, PG 20%, Day 5",80160 µg/mL
same,Conc of OH-Cbl,"challenge 80.90 mg/mL, ethanol 20%, PG 0%, Day 0",0 µg/mL
same,Conc of OH-Cbl,"challenge 80.90 mg/mL, ethanol 20%, PG 0%, Day 3",82090 µg/mL
same,Conc of OH-Cbl,"challenge 80.90 mg/mL, ethanol 20%, PG 0%, Day 5",80590 µg/mL
same,Conc of OH-Cbl,"challenge 80.90 mg/mL, ethanol 20%, PG 40%, Day 0",0 µg/mL
same,Conc of OH-Cbl,"challenge 80.90 mg/mL, ethanol 20%, PG 40%, Day 3",82940 µg/mL
same,Conc of OH-Cbl,"challenge 80.90 mg/mL, ethanol 20%, PG 40%, Day 5",82730 µg/mL
